Reference: patent publication US9309248B2, “Azaindolines” (Hoffmann-La Roche Inc., priority 2012, dated 2016)

What was measured:
BIR3 domain of XIAP = target: T1, BIR3 domain of XIAP (Homo sapiens, UniProt P98170); test: TR-FRET assay for BIR3 (inhibition of binding of XIAP BIR3 domain to SMAC-derived Peptide A); conditions: 6x Histidine-tagged BIR3 domain (amino acids 241-356 of XIAP) 10 nM, Peptide A 20 nM
T1 construct: BIR3 domain, corresponding to amino acids 241-356 of XIAP
Method in brief: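 His6-tagged XIAP BIR3 (aa 241-356, 10 nM) was mixed with 20 nM biotinylated SMAC-derived peptide in 50 mM Tris-Cl pH 7.5, 100 mM NaCl, 1 mM DTT, 0.1 mg/mL BSA and incubated 45 min at 37 °C. Eu-streptavidin (1.5 nM) and APC anti-His (15 nM) were added, with TR-FRET read 1 h later at RT. IC50 came from % inhibition over 10 serial concentrations.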

BIR2 domain of XIAP = target: T2, BIR2 domain of XIAP (Homo sapiens, UniProt P98170, C202A/C213G); test: TR-FRET assay for BIR2 (inhibition of binding of XIAP BIR2 domain to SMAC-derived Peptide A); conditions: 6x Histidine-tagged BIR2 domain (amino acids 124-240 of XIAP) 10 nM, Peptide A 20 nM
T2 construct: 6× Histidine-tagged BIR2 domain, corresponding to amino acids 124-240 of XIAP
T2 sequence (P98170 with tags, fused parts or gaps C202A/C213G): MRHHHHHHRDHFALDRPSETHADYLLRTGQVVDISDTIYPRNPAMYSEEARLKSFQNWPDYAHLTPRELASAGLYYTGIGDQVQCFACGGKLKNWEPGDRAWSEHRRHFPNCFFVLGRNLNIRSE
Method in brief: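 Inhibition of binding of the XIAP BIR2 domain (C202A/C213G) to biotinylated SMAC-derived Peptide A was measured. TR-FRET signal was read after 1 h at room temperature.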

T1 sequence (P98170 with tags, fused parts or gaps): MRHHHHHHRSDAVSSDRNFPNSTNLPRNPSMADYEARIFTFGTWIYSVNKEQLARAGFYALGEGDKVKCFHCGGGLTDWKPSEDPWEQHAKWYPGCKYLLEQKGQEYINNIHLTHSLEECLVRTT

IC50 (BIR3 domain of XIAP) [µM] | IC50 (BIR2 domain of XIAP) [µM] | SMILES
47.4 | 4.73 | CN[C@@H](C)C(=O)N[C@H](C(=O)N1c2ncccc2C[C@H]1C(=O)NC(C)(C)c1ccccc1)C(C)C [Example 54, (S)-1-[(S)-3-Methyl-2-((S)-2-methylamino-propionylamino)-butyryl]-2,3-dihydro-1H-pyrrolo[2,3-b]pyridine-2-carboxylic acid (1-methyl-1-phenyl-ethyl)-amide]
35.3 | 0.139 | CN[C@@H](C)C(=O)N[C@H](C(=O)N1c2ncccc2C[C@H]1C(=O)NCc1cc(F)ccc1C)C(C)C [Example 55, (S)-1-[(S)-3-Methyl-2-((S)-2-methylamino-propionylamino)-butyryl]-2,3-dihydro-1H-pyrrolo[2,3-b]pyridine-2-carboxylic acid 5-fluoro-2-methyl-benzylamide]
> 54.8 | 1.63 | CN[C@@H](C)C(=O)N[C@H](C(=O)N1c2ncccc2C[C@H]1C(=O)Nc1cncnc1)C(C)C [Example 56, (S)-1-[(S)-3-Methyl-2-((S)-2-methylamino-propionylamino)-butyryl]-2,3-dihydro-1H-pyrrolo[2,3-b]pyridine-2-carboxylic acid pyrimidin-5-ylamide]
> 54.8 | 0.164 | CN[C@@H](C)C(=O)N[C@H](C(=O)N1c2ncccc2C[C@H]1C(=O)Nc1ccc2ccccc2c1)C(C)C [Example 57, (S)-1-[(S)-3-Methyl-2-((S)-2-methylamino-propionylamino)-butyryl]-2,3-dihydro-1H-pyrrolo[2,3-b]pyridine-2-carboxylic acid naphthalen-2-ylamide]
> 54.8 | 0.14 | CN[C@@H](C)C(=O)N[C@H](C(=O)N1c2ncccc2C[C@H]1C(=O)Nc1ccc(C#N)cc1F)C(C)C [Example 58, (S)-1-[(S)-3-Methyl-2-((S)-2-methylamino-propionylamino)-butyryl]-2,3-dihydro-1H-pyrrolo[2,3-b]pyridine-2-carboxylic acid (4-cyano-2-fluoro-phenyl)-amide]
> 54.8 | 0.0536 | CN[C@@H](C)C(=O)N[C@H](C(=O)N1c2ncccc2C[C@H]1C(=O)Nc1ccc(C(F)(F)F)cc1F)C(C)C [Example 59, (S)-1-[(S)-3-Methyl-2-((S)-2-methylamino-propionylamino)-butyryl]-2,3-dihydro-1H-pyrrolo[2,3-b]pyridine-2-carboxylic acid (2-fluoro-4-trifluoromethyl-phenyl)-amide]
> 54.8 | 0.0382 | CN[C@@H](C)C(=O)N[C@H](C(=O)N1c2ncccc2C[C@H]1C(=O)Nc1cccc(F)c1F)C(C)C [Example 60, (S)-1-[(S)-3-Methyl-2-((S)-2-methylamino-propionylamino)-butyryl]-2,3-dihydro-1H-pyrrolo[2,3-b]pyridine-2-carboxylic acid (2,3-difluoro-phenyl)-amide]
> 54.8 | 0.0348 | CN[C@@H](C)C(=O)N[C@H](C(=O)N1c2ncccc2C[C@H]1C(=O)Nc1cc(F)ccc1F)C(C)C [Example 61, (S)-1-[(S)-3-Methyl-2-((S)-2-methylamino-propionylamino)-butyryl]-2,3-dihydro-1H-pyrrolo[2,3-b]pyridine-2-carboxylic acid (2,5-difluoro-phenyl)-amide]
> 54.8 | 0.0351 | CN[C@@H](C)C(=O)N[C@H](C(=O)N1c2ncccc2C[C@H]1C(=O)Nc1ccc(C(=O)N(C)C)cc1F)C(C)C [Example 62, (S)-1-[(S)-3-Methyl-2-((S)-2-methylamino-propionylamino)-butyryl]-2,3-dihydro-1H-pyrrolo[2,3-b]pyridine-2-carboxylic acid (4-dimethylcarbamoyl-2-fluoro-phenyl)-amide]
> 54.8 | 0.032 | CN[C@@H](C)C(=O)N[C@H](C(=O)N1c2ncccc2C[C@H]1C(=O)Nc1ccc(Br)cc1F)C(C)C [Example 63, (S)-1-[(S)-3-Methyl-2-((S)-2-methylamino-propionylamino)-butyryl]-2,3-dihydro-1H-pyrrolo[2,3-b]pyridine-2-carboxylic acid (4-bromo-2-fluoro-phenyl)-amide]
